SMILES strings stand for the structures. A value given as a limit tells only on which side of the number the result lay.

T1 sequence (P20393 with tags, fused parts or gaps DEL324-422): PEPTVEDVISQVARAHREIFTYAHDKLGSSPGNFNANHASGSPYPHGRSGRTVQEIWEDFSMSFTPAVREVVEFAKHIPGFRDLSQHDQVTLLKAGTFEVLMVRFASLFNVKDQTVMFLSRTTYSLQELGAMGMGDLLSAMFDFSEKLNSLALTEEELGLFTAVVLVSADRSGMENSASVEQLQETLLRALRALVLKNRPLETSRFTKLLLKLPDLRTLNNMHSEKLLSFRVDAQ
T1 sequence (Q9Y618 2335-2356 partner limits assumed): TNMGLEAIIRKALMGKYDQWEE

One assay has as its target T1, REV-ERBα LBD (human; residues 281-614 Δ324-422) (Homo sapiens, UniProt P20393, DEL324-422).
T1 construct: 6×Histag-REV-ERBα LBD (human; residues 281-614 Δ324-422); made in house; host or cells: Escherichia coli
Briefly: TR-FRET corepressor interaction assay (REV-ERBα LBD, FITC-SMRT peptide). It is filed as biochemical. The note with it: FITC-SMRT peptide, read-out: REVERBα agonism (EC50 class, FRET assay). The essentials: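 Compound serial dilutions (in DMSO, triplicate) incubated 2 h at 4 °C; Tb donor excited at 340 nm, emission read at 495 nm and FITC acceptor at 520 nm. TR-FRET ratio (520/495 nm) plotted against ligand concentration and fitted to a sigmoidal dose-response curve.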
On the technique in general: Time-resolved FRET reads energy transfer from a long-lived donor to a nearby acceptor.
On to `CC(C)(O)Cn1cc([C@H](NS(=O)(=O)C2CCC2)C(F)(F)F)c2cc(F)c(-c3ccccc3C(F)(F)F)cc21` [Example 478, N-[(1S)-2,2,2-trifluoro-1-[5-fluoro-1-(2-hydroxy-2-methyl-propyl)-6-[2-(trifluoromethyl)phenyl]indol-3-yl]ethyl]cyclobutanesulfonamide], for which the concentration giving a half-maximal response (EC50) lay within 500 to 3000 nM.

As for `CC(C)(C)Cn1cc([C@H](CF)NS(=O)(=O)C2CCC2)c2ccc(-c3ccccc3C(F)(F)F)cc21` [Example 429, (R)—N-(2-fluoro-1-(1-neopentyl-6-(2-(trifluoromethyl)phenyl)-1H-indol-3-yl)ethyl)cyclobutanesulfonamide], the EC50 was under 500 nM.

With `CC(C)(C)Cn1cc(CCNS(=O)(=O)C2CC2)c2ccc(-c3ccc(C(F)(F)F)cc3C(F)(F)F)cc21` [Example 481, N-(2-(6-(2,4-bis(trifluoromethyl)phenyl)-1-neopentyl-1H-indol-3-yl)ethyl)cyclopropanesulfonamide], the EC50 fell in the range of 500 to 3000 nM.

Turning to `CC(C)(C)Cn1cc([C@H](NS(=O)(=O)C2CC2)C(F)F)c2ccc(-c3c(F)cccc3C(F)(F)F)cc21` [Example 543, (S)—N-(2,2-difluoro-1-(6-(2-fluoro-6-(trifluoromethyl)phenyl)-1-neopentyl-1H-indol-3-yl)ethyl)cyclopropanesulfonamide], the half-maximal effective concentration (EC50) is under 500 nM.

`CC(C)(C)Cn1cc([C@@H](CF)NS(=O)(=O)C2CCC2)c2ccc(-c3ccccc3C(F)(F)F)cc21` [Example 516, (S)—N-(2-fluoro-1-(1-neopentyl-6-(2-(trifluoromethyl)phenyl)-1H-indol-3-yl)ethyl)cyclobutanesulfonamide]: the EC50 was under 500 nM.

Turning to `CC(C)(C)Cc1cn(CCNS(=O)(=O)C2CCCC2)c2ccc(-c3ccc(C(F)(F)F)cc3C(F)(F)F)cc12` [Example 503, N-(2-(5-(2,4-bis(trifluoromethyl)phenyl)-3-neopentyl-1H-indol-1-yl)ethyl)cyclopentanesulfonamide], the EC50 is under 500 nM.

Turning to `CC(C)Cn1cc([C@H](NS(=O)(=O)C2CCC2)C(F)(F)F)c2ccc(-c3ccccc3C(F)(F)F)cc21` [Example 499, (S)—N-(2,2,2-trifluoro-1-(1-isobutyl-6-(2-(trifluoromethyl)phenyl)-1H-indol-3-yl)ethyl)cyclobutanesulfonamide], the EC50 was under 500 nM.

The same assay, now with this note: Table 2, read-out: REVERBα agonism (EC50 class, FRET assay).
With `COC(C)(C)Cn1cc([C@H](NS(=O)(=O)C2CCC2)C(F)(F)F)c2ccc(-c3ccccc3C(F)(F)F)nc21` [Example 413, (S)—N-(2,2,2-trifluoro-1-(1-(2-methoxy-2-methylpropyl)-6-(2-(trifluoromethyl)phenyl)-1H-pyrrolo[2,3-b]pyridin-3-yl)ethyl)cyclobutanesulfonamide], the EC50 was under 500 nM.

As for `CC(C)Cn1cc(C(C)N[S+]([O-])C(C)(C)C)c2ccc(-c3ccccc3C(F)(F)F)cc21` (stereo not shown) [Compound 291], the EC50 is over 3000 nM.

In the case of `Cc1c(-c2ccccc2C(F)(F)F)ccc2c([C@H](NS(=O)(=O)C3CC3)C(F)(F)F)cn(CC(C)(C)C)c12` [Example 353, (S)—N-(2,2,2-trifluoro-1-(7-methyl-1-neopentyl-6-(2-(trifluoromethyl)phenyl)-1H-indol-3-yl)ethyl)cyclopropanesulfonamide], the EC50 is under 500 nM.

For the compound `CC(C)Cn1cc(CCNS(=O)(=O)N(C)C)c2cc(F)c(Br)cc21` [Example 168, ({2-[6-bromo-5-fluoro-1-(2-methylpropyl)-1H-indol-3-yl]ethyl}sulfamoyl)dimethylamine], the EC50 is under 500 nM.

Take `CC(C)(C)Cn1cc(CCNS(=O)(=O)C2CC2)c2ccc(-c3cccc(F)c3C(F)(F)F)cc21` [Example 393, N-(2-(6-(3-fluoro-2-(trifluoromethyl)phenyl)-1-neopentyl-1H-indol-3-yl)ethyl)cyclopropanesulfonamide]: the EC50 lay within 500 to 3000 nM.

Consider `CC(C)(C)Cn1cc([C@H](NS(=O)(=O)C2CC2)C(F)(F)F)c2cc(F)c(-c3cccc(F)c3C(F)(F)F)cc21` [Example 360, (S)—N-(2,2,2-trifluoro-1-(5-fluoro-6-(3-fluoro-2-(trifluoromethyl)phenyl)-1-neopentyl-1H-indol-3-yl)ethyl)cyclopropanesulfonamide], for which the EC50 was under 500 nM.

Consider `CC(C)Cn1cc(C(NS(=O)(=O)C(C)C)C(F)(F)F)c2ccc(-c3ccccc3C(F)(F)F)cc21` (stereo not shown) [Example 224, N-(2,2,2-trifluoro-1-(1-isobutyl-6-(2-(trifluoromethyl)phenyl)-1H-indol-3-yl)ethyl)propane-2-sulfonamide], for which the half-maximal effective concentration (EC50) fell in the range of 500 to 3000 nM.

As for `N#CC1(Cn2cc([C@H](NS(=O)(=O)C3CCC3)C(F)(F)F)c3cc(F)c(-c4ccccc4C(F)(F)F)cc32)CC1` [Example 392, [(1S)-1-[1-[(1-cyanocyclopropyl)methyl]-5-fluoro-6-[2-(trifluoromethyl)phenyl]indol-3-yl]-2,2,2-trifluoro-ethyl]cyclobutanesulfonamide], the EC50 was under 500 nM.

As for `CC(C)(C)Cc1cn(CCNS(=O)(=O)C2CC2)c2ccc(-c3ccc(N)c(F)c3Cl)cc12` [Example 229, N-(2-(5-(4-amino-2-chloro-3-fluorophenyl)-3-neopentyl-1H-indol-1-yl)ethyl) cyclo-propanesulfonamide], the EC50 is under 500 nM.

As to `Cc1cccc(C)c1-c1ccc2c(CCNS(=O)(=O)N(C)C)cn(CC(C)C)c2c1` [Example 81, N-{2-[6-(2,6-dimethylphenyl)-1-(2-methylpropyl)-1H-indol-3-yl]ethyl}-N,N-dimethyl-sulfuric diamide], the EC50 is under 500 nM.

For the compound `CC(C)Cn1cc(CCNS(=O)(=O)N(C)C)c2c(Br)cccc21` [Example 136, ({2-[4-bromo-1-(2-methylpropyl)-1H-indol-3-yl]ethyl}sulfamoyl)dimethylamine], the EC50 is 500 to 3000 nM.

Turning to `Cc1cc2c(cc1F)c(CCNS(=O)(=O)N(C)C)cn2CC(C)C` [Example 170, ({2-[5-fluoro-6-methyl-1-(2-methylpropyl)-1H-indol-3-yl]ethyl}sulfamoyl)dimethylamine], the EC50 is under 500 nM.

`CN(C)S(=O)(=O)NCCn1cc(CCC(F)(F)F)c2cc(Br)ccc21` [Example 172, N-{2-[5-bromo-3-(3,3,3-trifluoropropyl)-1H-indol-1-yl]ethyl}-N,N-dimethylsulfuric diamide]: the half-maximal effective concentration (EC50) was in the range of 500 to 3000 nM.

In the case of `CC(C)(C)Cc1cn(CCNS(=O)(=O)C2CC2)c2ccc(-c3ccc(F)c4ccccc34)cc12` [Example 219, N-(2-(5-(4-fluoronaphthalen-1-yl)-3-neopentyl-1H-indol-1-yl)ethyl)cyclopropanesulfonamide], the EC50 was under 500 nM.

Take `CC(C)(C)C(=O)n1cc(CNS(=O)(=O)C(F)(F)F)c2cc(F)c(-c3ccncc3Cl)cc21` [Compound 285]: the EC50 was over 3000 nM.

In the case of `CC(C)Cn1cc(C(C)CNS(=O)(=O)C(C)C)c2ccc(-c3ccncc3)cc21` (stereo not shown) [Compound 251], the EC50 was under 500 nM.

For the compound `CC(C)Cn1cc(CCNS(=O)(=O)N(C)C)c2ccc(Nc3ccnn3C)cc21` [Compound 69, 3-{2-[(dimethylsulfamoyl)amino]ethyl}-N-(1-methyl-1H-pyrazol-5-yl)-1-(2-methylpropyl)-1H-indol-6-amine], the EC50 is over 3000 nM.

Consider `CC(C)Cn1cc(C(C)CNS(=O)(=O)N(C)C)c2ccc(-c3ccccc3)cc21` (stereo not shown) [Compound 255], for which the EC50 fell in the range of 500 to 3000 nM.

For orientation: EC50 means the concentration giving half of the maximal effect.
